Data on 17 compounds can be found in ChEMBL document CHEMBL1125691, “Escherichia coli mediated biosynthesis and in vitro anti-HIV activity of lipophilic 6-halo-2',3'-dideoxypurine nucleosides” (J Med Chem, 1991).

Data set [1] deals with ATH-8 cell line. In words: Concentration required to suppress the growth of target ATH8 cells. The format is functional. The following applies: Homo sapiens, read-out: CD50 (the source's name).
Data set [2] concerns ATH-8 cell line. In words: Concentration required to inhibit the cytopathic effect of HIV-1 on ATH8 cells. The format is functional, Human immunodeficiency virus 1. Particulars: Homo sapiens, read-out: ED50 (the source's name).
Data set [3] concerns ATH-8 cell line. The data set can be described thus: In Vitro evaluation for the anti-viral activity Drug concentrations required to inhibit the cytopathic effect of HIV-2 on ATH8 cells. The format is functional. Particulars: Homo sapiens, read-out: ED50 (the source's name). (In general: Damage to the host cells serves as the signal in cytopathic effect assays.)
The subject of data set [4] is ATH-8 cell line. The data set can be described thus: (§1) ratio of CD50/ED50. The format is functional.
Data set [5] is described as follows: Compound was evaluated for the partition coefficient measured for 1-octanol and 0.01 M potassium phosphate buffer (pH 7.0). Particulars: octanol/water. The format is physicochemical.
The subject of data set [6] is ATH-8 cell line. In words: Ratio of CD50/ED50. The format is functional.
In data set [7] the test system is ATH-8 cell line. In words: In vitro evaluation for the anti-viral activity by taking the drug concentrations required to suppress the growth of target ATH8 cells. The format is functional. The following applies: Homo sapiens, read-out: CD50 (the source's name).
For data set [8], the system named is ATH-8 cell line. In words: In vitro evaluation for the anti-viral activity Drug concentrations required to inhibit the cytopathic effect of HIV-1on ATH8 cells. Particulars: Homo sapiens, read-out: ED50 (the source's name). The data set is classed as functional.
Data set [9] is described as follows: as §1. The format is functional.

For the compound `OCC1CCC(n2cnc3c(Br)ncnc32)O1` (configuration not stated), the CC50 in the data set with ATH-8 cell line [1] amounted to 96 µM. The EC50 in the data set on ATH-8 cell line [2] is 7.7 µM.

Consider `Nc1ncc2ncn([C@H]3CC[C@@H](CO)O3)c2n1`, for which the CC50 with ATH-8 cell line [1] was above 200 µM. Besides, in the data set with ATH-8 cell line [2], the EC50 is above 200 µM.

Regarding `Nc1nc(Cl)c2ncn([C@H]3CC[C@@H](CO)O3)c2n1`, in the data set on ATH-8 cell line [1], the CC50 was above 300 µM. In addition, the values for the EC50 in the data set with ATH-8 cell line [3] and with ATH-8 cell line [2] were 12.5 µM and 5.5 µM, respectively.

`O=c1[nH]c(=O)c2ncn([C@H]3CC[C@@H](CO)O3)c2[nH]1`: the CC50 in the data set with ATH-8 cell line [1] was above 200 µM. For the same compound, the EC50 in the data set on ATH-8 cell line [2] is above 200 µM.

As for `O=c1[nH]cnc2c1ncn2[C@H]1CC[C@@H](CO)O1` [DIDANOSINE], the Ratio in the data set on ATH-8 cell line [4] is on record as above 161. The compound further came in with a Partition coefficient in [5] of 0.05. In the data set with ATH-8 cell line [1], the CC50 is above 900 µM. For the same compound, in the data set on ATH-8 cell line [2], the EC50 stood at 5.6 µM.

Turning to `Nc1nc(S)c2ncn(C3CCC(CO)O3)c2n1` (configuration not stated), the Ratio with ATH-8 cell line [6] was below 0.1. The CC50 in the data set on ATH-8 cell line [7] amounted to 9 µM. The EC50 in the data set on ATH-8 cell line [8] was above 200 µM.

With `Nc1nc(I)c2ncn(C3CCC(CO)O3)c2n1` (configuration not stated), the CC50 in the data set with ATH-8 cell line [1] was 210 µM. Further, the EC50 in the data set on ATH-8 cell line [2] came out at 7.9 µM.

For the compound `Nc1nc2c(ncn2[C@H]2CC[C@@H](CO)O2)c(=O)[nH]1`, in the data set with ATH-8 cell line [4], the Ratio is above 257. The compound also had a Partition coefficient in data set [5] of 0.08. Moreover, the CC50 with ATH-8 cell line [1] was above 900 µM. Further, in the data set with ATH-8 cell line [2], the EC50 came to 3.5 µM.

As to `OC[C@@H]1CC[C@H](n2cnc3cncnc32)O1`, the CC50 in the data set with ATH-8 cell line [1] is above 200 µM. Further, in the data set on ATH-8 cell line [2], the EC50 was above 200 µM.

`OC[C@@H]1CC[C@H](n2cnc3c(Cl)ncnc32)O1`: the CC50 in the data set with ATH-8 cell line [1] is 164 µM. Further, the EC50 with ATH-8 cell line [3] came out at 42 µM; in the data set with ATH-8 cell line [2] it was 6.9 µM.

Consider `Nc1nc(F)c2ncn([C@H]3CC[C@@H](CO)O3)c2n1`, for which the CC50 with ATH-8 cell line [1] was above 300 µM. Besides, the EC50 is 14.5 µM in the data set on ATH-8 cell line [3] and 2.4 µM with ATH-8 cell line [2].

Regarding `OC[C@@H]1CC[C@H](n2cnc3c(F)ncnc32)O1`, the CC50 in the data set on ATH-8 cell line [1] stood at 190 µM. Moreover, the EC50 was determined as 16 µM in the data set with ATH-8 cell line [3] and 2.8 µM in the data set on ATH-8 cell line [2].

Take `OCC1CCC(n2cnc3c(S)ncnc32)O1` (configuration not stated): the Ratio in the data set on ATH-8 cell line [4] is below 0.8. In addition, the CC50 in the data set on ATH-8 cell line [1] stood at 150 µM. For the same compound, the EC50 in the data set on ATH-8 cell line [2] was above 200 µM.

With `OCC1CCC(n2cnc3c(I)ncnc32)O1` (configuration not stated), in the data set on ATH-8 cell line [1], the CC50 amounted to 86 µM. In the data set on ATH-8 cell line [2], the EC50 is 46 µM.

On to `OC[C@@H]1CC[C@H](n2cnc3c(Cl)nc(Cl)nc32)O1`, for which, in [9], the Ratio was below 0.2. Besides, the CC50 with ATH-8 cell line [1] came to 36 µM. In addition, the EC50 in the data set with ATH-8 cell line [2] is above 200 µM.

In the case of `Nc1nc(Br)c2ncn(C3CCC(CO)O3)c2n1` (configuration not stated), the CC50 in the data set with ATH-8 cell line [1] is above 300 µM. Further, the EC50 in the data set on ATH-8 cell line [2] was determined as 6.9 µM.

Consider `Cc1cn([C@H]2C[C@H](N=[N+]=[N-])[C@@H](CO)O2)c(=O)[nH]c1=O` [ZIDOVUDINE], for which, in the data set on ATH-8 cell line [6], the Ratio is 4. The Partition coefficient in data set [5] came to 1.12. For the same compound, the CC50 in the data set on ATH-8 cell line [1] was above 20 µM. The EC50 in the data set with ATH-8 cell line [2] turned out to be 5 µM.
